Experimental data published in paper PMC10587159, “Biosynthesis and engineering of the nonribosomal peptides with a C-terminal putrescine” (Nature Communications, 2023).
One block for each molecule: values may come before it. Non-standard residues stand in square brackets, D forms with d. Residues, ends and D or L forms follow the SMILES beside them. *: point of attachment. dMet(O) = CS(=O)CC[C@@H](N)C(=O)O; Lauroyl = CCCCCCCCCCCC(=O)*; Decanoyl = CCCCCCCCCC(=O)*; NH(CH2)4NH2 = NCCCCN*; For = O=C*

Assays:
[1] = tested on: human cells Kasumi; assay: MTT cytotoxicity assay, Kasumi; type: cell-based; settings: 24 h
Description: (§1) The two human acute lymphoblastic leukemia cells K562 and Kasumi, two human breast adenocarcinoma cells MCF7 and MDA-MB-231, human hepatoma cell HepG-2, human lung adenocarcinoma cell A549, human gastric cancer cell SGC-7901, human colon cancer cell HCT-116, human ovarian cancer cell line SKOV3, or human lung epithelial normal cell 2B were obtained from Beyotime Biotechnology and utilized to test the cytotoxicity of compounds by MTT assays as previous study. The anti-inflammatory effect of the compounds was detected by the influence on the increase in the level of nitric oxide caused by lipopolysaccharide (LPS) based on the classic Griess method. RAW 264.7 cells (Shanghai Institutes for Biological Science) were seeded in 96-well plates and incubated for 24 h. Then, cells were treated with compounds 29, 29a, 31, and 31a (0-80 μM) for 30 min, followed by co-treatment with LPS ([…]) for another 24 h. The Nitric Oxide assay kit with Griess reagents (Beyotime, Lot: S0021, Shanghai, China) was used to examine cellular supernatant nitrite accumulation, which represents cellular NO levels. The OD value of 540 nm absorbance was detected with a microplate reader. Their authentication in the laboratory was performed regularly based on morphology and gene/protein expression. The tested micro-organisms including Gram-negative bacteria E. coli ATCC 35218 and Pseudomonas aeruginosa ATCC 27853, and Gram-positive bacteria Staphylococcus aureus ATCC 29213 and B. subtilis ATCC 6633, and fungi Candida albicans, Rhizoctonia solani and Aspergillus fumigatus were treated with different concentrations of compounds (1 μM, 10 μM, 100 μM) using Bauer-Kirby disk diffusion method to evaluate the antimicrobial activities.

[2] = tested on: human lung adenocarcinoma cell A549; assay: MTT cytotoxicity assay, A549; type: cell-based; settings: 24 h
Description: as §1

[3] = tested on: human acute lymphoblastic leukemia cells K562; assay: cells; type: cell-based; settings: 24 h
Description: as §1

[4] = tested on: human breast adenocarcinoma cells MCF7; assay: cells; type: cell-based; settings: 24 h
Description: as §1

[5] = tested on: human breast adenocarcinoma cells MDA-MB-231; assay: cells; type: cell-based; settings: 24 h
Description: as §1

[6] = tested on: human colon cancer cell HCT-116; assay: cells; type: cell-based; settings: 24 h
Description: as §1

[7] = tested on: human gastric cancer cell SGC-7901; assay: cells; type: cell-based; settings: 24 h
Description: as §1

[8] = tested on: human hepatoma cell HepG-2; assay: cells; type: cell-based; settings: 24 h
Description: as §1

[9] = tested on: human lung epithelial normal cell 2B; assay: cells; type: cell-based; settings: 24 h
Description: as §1

[10] = tested on: S. brevitalea DSM 7029 wild type; assay: Growth curve of DSM 7029 wild type with compounds (Bioscreen C); type: cell-based, Schlegelella brevitalea DSM 7029; settings: CYMG medium, compound 0.1 μg/μL, OD600 every hour for 42 h, Bioscreen C
Method: (§2) The growth curve was tested by Bioscreen C (Labsystems, Finland) as follow. Overnight culture was inoculated into 400 μL fresh CYMG medium in the ratio of 1:100 (the concentration of compounds was 0.1 μg/μL) and shook in normal speed. The OD600 value was gained in every hour for 42 h in total. Biofilm formation was measured at 18 h and 36 h respectively, as reported previously. In brief, the free-floating cells were removed, and the microtitre plate was washed with PBS (pH 7.4) after incubation for 18 h and 36 h. The biofilm was stained by adding 200 µL of crystal violet (0.1%) solution. Crystal violet solution was removed after 15 min and 200 µL of ethanol (95%) was added. The absorbance at OD600 was read using a microplate reader (Infinite M200, Tecan, Männedorf, Switzerland). Meanwhile, free-floating cells were used to test the secretion of pigment. The bacteria were removed and the supernatant was measured at OD600.

[11] = tested on: S. brevitalea DSM 7029 wild type; assay: Biofilm formation of DSM 7029 wild type with compounds (crystal violet); type: cell-based, Schlegelella brevitalea DSM 7029
Method: as §2

[12] = tested on: tumor lines; assay: MTT cytotoxicity assay, statements on the whole panel; type: cell-based, human; settings: MTT assay, panel of tumor cell lines
Description: as §1

[13] = tested on: C13 domain of GdnB fragments and mutants; assay: Condensation of T12-linked L-Ala with Put or other diamines (yield of 24a-27a, LC-MS); type: biochemical, Schlegelella brevitalea DSM 7029; settings: Average of n = 3
Method: In vitro assays for the different enzymes of the C-terminal multi-domains were performed. Reaction buffer contained 80 μM protein, 3 μM Sfp from B. subtilis, 200 μM CoA, 2.5 mM L-Ala and 5 mM ATP was incubated at 30 °C for 30 min. Then, 2.5 mM diamines or polyamines (i.e. putrescine, 1,7-diaminoheptane, 1,6-diaminohexane, 1,5-diaminopentane, 1,2-diaminocyclohexane, spermine, and spermidine, respectively) was added to make final volume of 200 μL. The reaction was further incubated at 30 °C for 1 h or 4 h. Triple amount of cold methanol was added to quench the reaction, and the supernatant was dried by SpeedVac after removed the precipitate at 10,000 × g for 8 min. The reaction mixture was dissolved with 200 μL ddH2O, and then the mixture was derived with D-FDAA according to the procedure of the above Marfey’s analysis. The final reaction mixture was suspended using 100 μL 2 M HCl, which subsequently was dried by SpeedVac. Finally, the mixture dissolved with 100 μL MeOH to detect the target products (24a, 25a, 26a, and 27a) using LC‒MS analysis (5%‒95% ACN in 15 min).

[14] = tested on: A1 domain of CsA1T1 (GdnA); assay: Adenylation activity of A1 domain (ATP/PPi exchange, pyrophosphate production assay); type: biochemical, Schlegelella brevitalea DSM 7029; settings: for relative activity of A1 domain for the activation of amino acids, Average: CsA1T1 1 μM, 10 mM amino acid, 2.5 mM ATP, pH 7.6, A360, L-Met = 100%, mean of n = 3; for selectivity of A1 domain for amino acids in words: response to reviewers on Supplementary Fig. 6a
Method: For pyrophosphate production assays, the reaction system contains 10 mM amino acid substrates, 2.5 mM ATP (Solarbio), 0.2 mM MESG (Medchemexpress), 1 U/mL purine nucleoside phosphorylase (Shanghai yuanye Bio-Technology Co., Ltd), 0.4 U/mL inorganic pyrophosphatase (Sigma), 150 mM hydroxylamine (Sigma) and 1 μM proteins in 100 μL buffer (50 mM Tris, 300 mM NaCl and 5 mM MgCl2, pH 7.6). The value was read at A360 in a SpectraMax M5 plate reader (Molecular Devices, Sunnyvale, California) in 96 well, clear-bottomed plates (Corning). A360 values were converted to pyrophosphate release, by comparing with a standard curve (KH2PO4 from 2 μM to 128 μM) for known quantities of pyrophosphate.

IC50 [3]: > 20 µM | IC50 [4]: > 20 µM | IC50 [5]: > 20 µM | IC50 [6]: > 20 µM | IC50 [7]: > 20 µM | IC50 [8]: > 20 µM
SMILES: CC(C)[C@H](NC(=O)[C@@H]1CCCN1C(=O)[C@@H](CC(N)=O)NC(=O)[C@H](N)CC[S+](C)[O-])C(=O)N[C@H](Cc1ccccc1)C(=O)N1CCC[C@H]1C(=O)N[C@@H](Cc1c[nH]c2ccccc12)C(=O)N[C@@H](C(=O)N[C@@H](C)C(=O)N[C@H](C)C(=O)N[C@@H](CO)C(=O)N[C@@H](C)C(=O)NCCCCN)C(C)C (stereo partly shown) [Compound 2, Glidonin B] (H-[dMet(O)][dN]PV[dF]PW[dV]A[dA]SA-{NH(CH2)4NH2})
IC50 [1]: > 20 µM | IC50 [2]: > 20 µM | IC50 [9]: > 20 µM | effect on growth of DSM 7029 wild type in words [10]: no effect | effect on biofilm formation of DSM 7029 wild type in words ([11]; crystal violet staining): less effect on biofilm formation | biofilm formation 18 h, Average ([11]; relative to wild type treated with H2O = 100%, crystal violet 0.1%, OD600, mean of n = 3): 92.0189% | biofilm formation 36 h ([11]; relative to wild type treated with H2O = 100%, crystal violet 0.1%, OD600, replicate 1): 105.006% | biofilm formation 36 h ([11]; relative to wild type treated with H2O = 100%, crystal violet 0.1%, OD600, replicate 2): 81.9095% | biofilm formation 36 h ([11]; relative to wild type treated with H2O = 100%, crystal violet 0.1%, OD600, replicate 3): 97.572%

IC50 [3]: > 20 µM | IC50 [4]: > 20 µM | IC50 [5]: > 20 µM | IC50 [6]: > 20 µM | IC50 [7]: > 20 µM | IC50 [8]: > 20 µM
SMILES: CSCC[C@@H](NC=O)C(=O)N[C@H](CC(N)=O)C(=O)N1CCC[C@H]1C(=O)N[C@H](C(=O)N[C@H](Cc1ccccc1)C(=O)N1CCC[C@H]1C(=O)N[C@@H](Cc1c[nH]c2ccccc12)C(=O)N[C@@H](C(=O)N[C@@H](C)C(=O)N[C@H](C)C(=O)N[C@@H](CO)C(=O)N[C@@H](C)C(=O)NCCCCN)C(C)C)C(C)C [Compound 4, Glidonin D] (For-[dM][dN]PV[dF]PW[dV]A[dA]SA-{NH(CH2)4NH2})
IC50 [1]: > 20 µM | IC50 [2]: > 20 µM | IC50 [9]: > 20 µM

IC50 [5]: > 20 µM | IC50 [8]: > 20 µM
SMILES: CCCCCCCCCC(=O)N[C@H](CCSC)C(=O)N[C@H](CC(N)=O)C(=O)N1CCC[C@H]1C(=O)N[C@H](C(=O)N[C@H](Cc1ccccc1)C(=O)N1CCC[C@H]1C(=O)N[C@@H](Cc1c[nH]c2ccccc12)C(=O)N[C@@H](C(=O)N[C@@H](C)C(=O)N[C@H](C)C(=O)N[C@@H](CO)C(=O)N[C@@H](C)C(=O)NCCCCN)C(C)C)C(C)C [Compound 6, Glidonin F] (Decanoyl-[dM][dN]PV[dF]PW[dV]A[dA]SA-{NH(CH2)4NH2})
IC50 [2]: > 20 µM | IC50 [9]: > 20 µM

IC50 [3]: > 20 µM | IC50 [4]: > 20 µM | IC50 [5]: 4.26 µM | IC50 [6]: > 20 µM | IC50 [7]: > 20 µM | IC50 [8]: > 20 µM
SMILES: CCCCCCCCCCCC(=O)N[C@H](CC(C)C)C(=O)N[C@H](CC(N)=O)C(=O)N1CCC[C@H]1C(=O)N[C@H](C(=O)N[C@H](Cc1ccccc1)C(=O)N1CCC[C@H]1C(=O)N[C@@H](Cc1c[nH]c2ccccc12)C(=O)N[C@@H](C(=O)N[C@@H](C)C(=O)N[C@H](C)C(=O)N[C@@H](CO)C(=O)N[C@@H](C)C(=O)NCCCCN)C(C)C)C(C)C [Compound 9, Glidonin I] (Lauroyl-[dL][dN]PV[dF]PW[dV]A[dA]SA-{NH(CH2)4NH2})
IC50 [1]: 9.65 ± 0.4 µM | IC50 [2]: 3.26 µM | IC50 [9]: 10.4 ± 0.54 µM | cytotoxic / antitumor activity in words [12]: broad-spectrum cytotoxicity

SMILES: CC(N)C(=O)NCCCCNc1cc(NC(C)C(N)=O)c([N+](=O)[O-])cc1[N+](=O)[O-] [Compound 24a, L-Ala-Put-FDAA]
L-Ala condensing with Put, 1,5-diaminopentane, 1,6-diaminohexane, and 1,7-diaminoheptane (Relative Yield of product) ([13]; protein A12T12): 100 | L-Ala condensing with Put, 1,5-diaminopentane, 1,6-diaminohexane, and 1,7-diaminoheptane (Relative Yield of product) ([13]; protein A12T12C13A*T13): 1640

SMILES: CC(N)C(=O)NCCCCCNc1cc(NC(C)C(N)=O)c([N+](=O)[O-])cc1[N+](=O)[O-] (stereo not shown) [Compound 25a]
L-Ala condensing with Put, 1,5-diaminopentane, 1,6-diaminohexane, and 1,7-diaminoheptane (Relative Yield of product) ([13]; protein A12T12): 100 | L-Ala condensing with Put, 1,5-diaminopentane, 1,6-diaminohexane, and 1,7-diaminoheptane (Relative Yield of product) ([13]; protein A12T12C13A*T13): 794.339

SMILES: NCC(=O)O [Gly]
relative activity of A1 domain for the activation of amino acids, Average [14]: 3.896%

SMILES: C[C@H](N)C(=O)O [L-Ala]
relative activity of A1 domain for the activation of amino acids, Average [14]: 37.8571% | selectivity of A1 domain for amino acids in words [14]: broad selectivity

SMILES: NC(=O)C[C@H](N)C(=O)O [L-Asn]
relative activity of A1 domain for the activation of amino acids, Average [14]: 8.604%

SMILES: N[C@@H](CS)C(=O)O [L-Cys]
relative activity of A1 domain for the activation of amino acids, Average [14]: 4.302%

SMILES: NC(=O)CC[C@H](N)C(=O)O [L-Gln]
relative activity of A1 domain for the activation of amino acids, Average [14]: 42.7539% | selectivity of A1 domain for amino acids in words [14]: broad selectivity
